Results: US5654399A, “Tetrapeptide derivative having antitumor activity” (Teikoku Hormone Mfg. Co., Ltd., priority 1991, dated 1997)
Converted amounts (≈) assume the structure as drawn.

Tested on: lymphocytic leukemia P388 cells
Test: screening of cytostatic activity using lymphocytic leukemia P388 cells
Type: cell-based
From the text: The screening of cytostatic activity was made using lymphocytic leukemia P388 cells.

CC[C@H](C)[C@@H]([C@@H](CC(=O)N1CCC[C@H]1[C@H](OC)[C@@H](C)C(=O)N[C@@H](Cc1ccccc1)c1nccs1)OC)N(C)C(=O)[C@@H](NC(=O)[C@H](C(C)C)N(C)C)C(C)C [Dolastatin 10]
ED50: 0.7 ng/mL (≈ 0.892 nM)
